Data: patent publication US5545639A, “Method of inhibiting transformed cells” (The United States of America as represented by the …, priority 1994, dated 1996)

Experiments:
Format in all cases: cell-based
human tumor cell lines = test: Example 5: dose response of growth of human tumor cell lines, overall panel
Procedure: (§1) Indeed, 70% of the cell lines were shown not only to experience precluded growth, but cell death, when exposed to less then 100 μM of the active ingredient.

SF-268 = test: Dose response of growth, tumor cell line; details: Homo sapiens, SF-268, CNS cancer
Procedure: as §1

SNB-78 = test: Dose response of growth, tumor cell line; details: Homo sapiens, SNB-78, CNS cancer
Procedure: as §1

HOP-62 = test: Dose response of growth, tumor cell line; details: Homo sapiens, HOP-62, non-small cell lung cancer
Procedure: as §1

COLO 205 = test: Dose response of growth, tumor cell line; details: Homo sapiens, COLO 205, colon cancer
Procedure: as §1

[1] = read-out: 50% Growth (Relative to Control)
[2] = read-out: No Growth (Relative to Control)

## ClCc1ccc2ccc3ccc(CCl)nc3c2n1 [2,9-bis(chloromethyl)-1,10-phenanthroline]
Human tumor cell lines; Homo sapiens, average, majority of cell lines, read-out: average concentration to preclude growth of the transformed cells in vitro, majority of cell lines
  IC (total growth inhibition): ~5.66 µM
Human tumor cell lines; human tumor cell lines
  cessation of growth of transformed cells: nearly all transformed cells cease growth in the presence of micromolar concentrations
SF-268; [1]
  IC50: 1790 nM
SF-268; [2]
  IC100: 3.74 µM
SNB-78; [1]
  IC50: 2300 nM
SNB-78; read-out: 50% Loss (50% kill)
  CC50: > 100000 nM
SNB-78; [2]
  IC100: 6.4 µM
HOP-62; [1]
  IC50: 2290 nM
HOP-62; read-out: 50% Loss (50% kill)
  CC50: 19200 nM
HOP-62; [2]
  IC100: 5.3 µM
COLO 205; [1]
  IC50: 1560 nM
COLO 205; read-out: 50% Loss (50% kill)
  CC50: 5540 nM
COLO 205; [2]
  IC100: 2.94 µM
